From patent publication US10787430B2, “Hemoglobin modifier compounds and uses thereof” (FronThera U.S. Pharmaceuticals LLC, priority 2016, dated 2020)

How the values were obtained:
[1] = test system: sickled HbSS whole blood (RBC sickling); experiment: Anti-sickling assay in HbSS sickled blood under hypoxic induction; format: cell-based, human; conditions: HbSS whole blood 26% Hct, 20 mins hypoxic induction; 0.2 mM compounds (FIG. 2)
Protocol: Materials: • Blood collected after informed consent from sickle cell individuals. • HBS buffer: 10 mM HEPES, 145 mM NaCl, pH 7.4 • Hemox buffer: Buffer provided for the hemox analyzer • Control Compound stock solution in DMSO (50 mM) stored at RT • Control Compound work solution (CWS): 10 μl of DMSO was added by Hamilton to 90 μl of HBS buffer (20 mM Hepes, 145 mM NaCl, pH 7.4) to create a working solution with a final concentration of 5 mM drug and 10% DMSO). • Compound stock solution in DMSO (50 mM) stored at RT • Compound work solution (WS): 10 μl of DMSO was added by Hamilton to 90 μl of HBS buffer (20 mM Hepes, 145 mM NaCl, pH 7.4) to create a working solution with a final concentration of 5 mM drug and 10% DMSO). • DMSO buffer: 10% DMSO (DB), same as WS but without drug. This will be used to maintain DMSO the same for different drug incubations. Test Protocol:
Collect blood from Clinic: Blood were collected after informed consent according to an approved IRB protocol. • Run Advia 120 analysis on SCD blood, to determine Hct. • Dilute blood to 20% Hct with HBS to total volume of 3 ml. • This cell suspension (CS) will be used for all experiments.
Incubation • 1. 200 μl CS • 2. 200 μl CS+20 μl CWS (5 mM diluted 10 times=0.5 mM control final)−(1% DMSO) • 3. 200 μl CS+20 μl WS (5 mM diluted 10 times=0.5 mM control final)−(1% DMSO) • 4. 200 μl CS+8 μl WS (0.2 mM drug final)+DB−(1% DMSO) • Incubate 30 minutes at 37° C.
50 μl into 1 ml HBS+2% BSA buffer. Eight time points (0-20 minutes) at 2% oxygen, 10,000 events each)
The sickling runs provide sets samples that need to be run on the AMNIS image flow and are subsequently analyzed with pixel analysis software.
Drug was provided at 50 mM concentration in DMSO, and stored at room temperature until use. 10 μl of DMSO was added by Hamilton to 90 μl of HBS buffer (20 mM Hepes, 145 mM NaCl, pH 7.4) to create a working solution with a final concentration of 5 mM drug and 10% DMSO). Blood was collected from a sickle cell patient in EDTA anticoagulant. To 200 μl of whole blood, a 20 or 8 μl of working solution was added resulting in a final drug concentration of 0.5 mM or 0.2 mM respectively. The DMSO concentration in both was corrected to 1%. The final hematocrit was measured by ADVIA analysis to be 26%. […] The delta hemox (%) comparing Example 29e with GBT440 is shown in FIG. 1A (0.2 mM) and FIG. 1B (0.5 mM).
Anti-sickling is shown in FIG. 2 with M: maximum percentage of sickled cells during 20 mins of hypoxic induction, T: time needed to reach 50% of M, and Z: baseline percentage of sickled cells prior to hypoxic induction.

[2] = target: T1, hemoglobin (20% hct blood) (Homo sapiens, UniProt P68871+P69905); experiment: Dose-dependent whole blood OEC studies; format: cell-based; conditions: 37° C., 1 hr; for delta p50 0.2 mM: 0.2 mM compound; for delta p50 0.5 mM: 0.5 mM compound
T1 construct: Normal whole blood was collected from adult healthy donors; from tissue; host or cells: normal human whole blood (red blood cells), adult healthy donors
Protocol: Materials: Normal whole blood was collected from adult healthy donors at the Virginia Commonwealth University after informed consent. The use of these human samples is in accordance with regulations of the IRB for Protection of Human Subjects. Compounds (50 mM-100 mM concentration in DMSO) were stored at 15° C. or room temperature until use.
To 2 ml 20% hct blood, 0.2 or 0.5 or 1 mM compound was added and kept shaking at 37° C. for 1 hr. OEC analysis was performed as described above to determine partial pressure of oxygen (pO2) and Hb oxygen saturation values (sO2). A control without compound but containing equivalent amount of DMSO was performed (1%). GBT440 was used as a positive control. Table 2 below lists the delta p50% values.

CYP2C8 = target: T2, CYP2C8 (Homo sapiens, UniProt P10632); experiment: CYP inhibition evaluation in human liver microsomes; format: in vitro ADME
T2 construct: from tissue; host or cells: human liver microsomes
T2 sequence (P10632 1-490): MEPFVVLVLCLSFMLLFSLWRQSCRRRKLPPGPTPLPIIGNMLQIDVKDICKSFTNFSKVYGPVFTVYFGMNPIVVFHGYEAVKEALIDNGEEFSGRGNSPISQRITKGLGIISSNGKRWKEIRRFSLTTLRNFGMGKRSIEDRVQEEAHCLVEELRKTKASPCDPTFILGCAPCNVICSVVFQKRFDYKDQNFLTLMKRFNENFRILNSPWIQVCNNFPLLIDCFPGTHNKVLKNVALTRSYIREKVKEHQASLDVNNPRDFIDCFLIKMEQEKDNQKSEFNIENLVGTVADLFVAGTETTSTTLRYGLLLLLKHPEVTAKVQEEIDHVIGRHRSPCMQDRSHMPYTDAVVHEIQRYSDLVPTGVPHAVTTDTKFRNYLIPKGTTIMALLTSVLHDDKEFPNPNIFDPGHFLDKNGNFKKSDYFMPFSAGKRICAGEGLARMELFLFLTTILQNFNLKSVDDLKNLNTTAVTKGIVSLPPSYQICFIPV
Excerpt: (§1) Example A5: CYP Inhibition Evaluation in Human Liver Microsomes

CYP1A2 = target: T3, CYP1A2 (Homo sapiens, UniProt P05177); experiment: as above; format: in vitro ADME
T3 construct: from tissue; host or cells: human liver microsomes
T3 sequence (P05177 1-516): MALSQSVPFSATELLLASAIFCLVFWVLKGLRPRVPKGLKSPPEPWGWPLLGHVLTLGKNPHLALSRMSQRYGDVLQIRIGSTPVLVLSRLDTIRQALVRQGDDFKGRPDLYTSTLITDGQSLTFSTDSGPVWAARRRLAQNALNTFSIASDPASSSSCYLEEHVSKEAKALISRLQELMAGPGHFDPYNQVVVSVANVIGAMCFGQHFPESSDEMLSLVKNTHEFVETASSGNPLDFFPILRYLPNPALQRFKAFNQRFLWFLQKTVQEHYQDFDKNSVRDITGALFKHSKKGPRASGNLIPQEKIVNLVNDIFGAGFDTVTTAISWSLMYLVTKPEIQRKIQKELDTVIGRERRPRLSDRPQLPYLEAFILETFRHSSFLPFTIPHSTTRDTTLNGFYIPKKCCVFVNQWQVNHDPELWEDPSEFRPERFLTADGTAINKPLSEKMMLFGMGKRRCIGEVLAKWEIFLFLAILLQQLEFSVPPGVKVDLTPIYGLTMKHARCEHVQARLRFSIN
Excerpt: as §1

CYP2D6 = target: T4, CYP2D6 (Homo sapiens, UniProt P10635); experiment: as above; format: in vitro ADME
T4 construct: from tissue; host or cells: human liver microsomes
Excerpt: as §1

CYP3A4-M = target: T5, CYP3A4-M (Homo sapiens, UniProt P08684); experiment: as above; format: in vitro ADME
T5 construct: from tissue; host or cells: human liver microsomes
Excerpt: as §1

CYP2C9 = target: T6, CYP2C9 (Homo sapiens, UniProt P11712); experiment: as above; format: in vitro ADME
T6 construct: from tissue; host or cells: human liver microsomes
Excerpt: as §1

CYP2C19 = target: T7, CYP2C19 (Homo sapiens, UniProt P33261); experiment: as above; format: in vitro ADME
T7 construct: from tissue; host or cells: human liver microsomes
Excerpt: as §1

[3] = Microsome stability evaluation in rat liver microsomes; format: in vitro ADME; conditions: read-out: Rat microsome, t½
Excerpt: (§2) Example A6: Microsome Stability Evaluation in Human and Rat Liver Microsomes

[4] = Microsome stability evaluation in human liver microsomes; format: in vitro ADME; conditions: read-out: Human microsome, t½
Excerpt: as §2

T6 sequence (P11712 whole entry): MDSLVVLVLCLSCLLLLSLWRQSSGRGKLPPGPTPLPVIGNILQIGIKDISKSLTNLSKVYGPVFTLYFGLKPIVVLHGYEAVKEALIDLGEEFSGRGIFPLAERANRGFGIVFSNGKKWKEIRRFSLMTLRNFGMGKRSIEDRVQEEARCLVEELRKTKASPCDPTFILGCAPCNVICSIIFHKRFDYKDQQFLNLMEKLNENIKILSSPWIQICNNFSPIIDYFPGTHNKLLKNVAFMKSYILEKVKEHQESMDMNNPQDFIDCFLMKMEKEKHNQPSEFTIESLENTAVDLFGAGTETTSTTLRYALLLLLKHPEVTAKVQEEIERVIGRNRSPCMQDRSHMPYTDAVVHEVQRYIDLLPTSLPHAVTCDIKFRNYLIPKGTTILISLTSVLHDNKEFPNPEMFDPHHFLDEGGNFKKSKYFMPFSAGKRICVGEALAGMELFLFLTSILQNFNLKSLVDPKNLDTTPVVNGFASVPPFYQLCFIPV
T1 sequence (P69905 2-142 limits assumed): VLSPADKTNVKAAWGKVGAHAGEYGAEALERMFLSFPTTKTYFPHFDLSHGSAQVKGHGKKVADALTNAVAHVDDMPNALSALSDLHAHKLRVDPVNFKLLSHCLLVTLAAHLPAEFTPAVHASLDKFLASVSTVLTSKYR
T1 sequence (P68871 2-147 limits assumed): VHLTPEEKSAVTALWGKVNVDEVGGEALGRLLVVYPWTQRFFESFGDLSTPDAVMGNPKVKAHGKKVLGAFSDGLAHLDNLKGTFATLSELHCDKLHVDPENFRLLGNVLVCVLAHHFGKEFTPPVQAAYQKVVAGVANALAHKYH
T5 sequence (P08684 whole entry): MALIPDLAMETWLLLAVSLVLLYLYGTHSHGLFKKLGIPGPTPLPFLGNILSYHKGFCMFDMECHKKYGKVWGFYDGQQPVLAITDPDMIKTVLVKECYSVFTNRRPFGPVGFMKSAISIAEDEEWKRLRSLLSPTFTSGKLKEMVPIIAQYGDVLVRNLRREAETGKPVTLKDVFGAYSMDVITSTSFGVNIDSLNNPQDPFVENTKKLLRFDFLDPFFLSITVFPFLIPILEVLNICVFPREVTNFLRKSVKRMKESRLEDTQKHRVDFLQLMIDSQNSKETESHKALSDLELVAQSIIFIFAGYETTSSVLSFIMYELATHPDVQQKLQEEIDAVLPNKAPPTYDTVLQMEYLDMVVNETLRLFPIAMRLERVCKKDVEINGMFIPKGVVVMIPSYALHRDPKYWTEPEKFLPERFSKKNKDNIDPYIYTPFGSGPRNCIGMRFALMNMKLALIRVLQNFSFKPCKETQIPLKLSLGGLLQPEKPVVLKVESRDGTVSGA
T4 sequence (P10635 whole entry): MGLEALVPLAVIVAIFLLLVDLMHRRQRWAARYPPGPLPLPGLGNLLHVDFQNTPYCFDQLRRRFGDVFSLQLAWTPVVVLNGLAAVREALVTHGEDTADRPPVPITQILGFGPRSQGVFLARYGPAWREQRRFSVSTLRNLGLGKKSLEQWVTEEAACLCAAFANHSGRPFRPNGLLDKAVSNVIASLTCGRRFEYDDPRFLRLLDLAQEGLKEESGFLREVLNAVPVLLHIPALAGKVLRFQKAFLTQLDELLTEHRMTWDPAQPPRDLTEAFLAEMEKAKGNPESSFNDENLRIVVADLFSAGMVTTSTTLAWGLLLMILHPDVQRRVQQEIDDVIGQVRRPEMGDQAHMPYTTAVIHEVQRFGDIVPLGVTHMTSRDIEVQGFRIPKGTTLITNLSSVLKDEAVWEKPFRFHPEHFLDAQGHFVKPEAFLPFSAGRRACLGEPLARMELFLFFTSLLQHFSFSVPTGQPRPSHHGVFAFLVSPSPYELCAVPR
T7 sequence (P33261 whole entry): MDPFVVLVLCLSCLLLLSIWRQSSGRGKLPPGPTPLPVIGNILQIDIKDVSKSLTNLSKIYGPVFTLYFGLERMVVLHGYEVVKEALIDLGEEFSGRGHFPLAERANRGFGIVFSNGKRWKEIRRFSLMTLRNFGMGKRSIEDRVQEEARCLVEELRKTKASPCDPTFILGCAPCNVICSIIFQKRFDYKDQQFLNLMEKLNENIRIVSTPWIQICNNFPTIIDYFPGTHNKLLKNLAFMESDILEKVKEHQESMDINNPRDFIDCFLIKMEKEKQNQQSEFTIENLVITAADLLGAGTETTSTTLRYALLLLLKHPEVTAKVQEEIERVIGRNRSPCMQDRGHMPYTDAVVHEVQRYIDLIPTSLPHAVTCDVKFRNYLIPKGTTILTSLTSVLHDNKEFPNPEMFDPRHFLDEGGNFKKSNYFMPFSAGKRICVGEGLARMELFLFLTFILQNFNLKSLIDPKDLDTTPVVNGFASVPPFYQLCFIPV

| SMILES | Reduction in % sickled cells compared to untreated [1] | delta p50 0.2 mM [2] | delta p50 0.5 mM [2] | IC50 (CYP2C8) | IC50 (CYP1A2) | IC50 (CYP2D6) | IC50 (CYP3A4-M) | IC50 (CYP2C9) | IC50 (CYP2C19) | half-life [3] | half-life [4] |
| --- | --- | --- | --- | --- | --- | --- | --- | --- | --- | --- | --- |
| [2H]C([2H])(Oc1cc(F)cc(O)c1C=O)c1cccnc1-c1ccnn1C(C)C [Example 27b, 4-fluoro-2-hydroxy-6-((2-(1-isopropyl-1H-pyrazol-5-yl)pyridin-3-yl)methoxy-d2)benzaldehyde] | −30.8% | −18.8% | −56.6% | 3.7 µM | 22 µM | > 30 µM | 10 µM | 11 µM | 6.1 µM | 19 min | 24 min |
| [2H]C([2H])(Oc1cccc(O)c1C=O)c1cccnc1-n1ccnc1C(C)C [Example 29e, 2-hydroxy-6-((2-(2-isopropyl-1H-imidazol-1-yl)pyridin-3-yl)methoxy-d2)benzaldehyde] | −27.1% | −24.9% | −66.1% | > 50 µM | > 50 µM | > 50 µM | > 50 µM | 36.5 µM | 19.5 µM | 11 min | 11 min |
| CC(C)n1nccc1-c1ncccc1COc1cccc(O)c1C=O [GBT440, reference compound] | −22.4% | −14.2% | −35.1% | 12.4 µM | 17.6 µM | > 30 µM | > 30 µM | 28.1 µM | 7 µM | 22 min | 24 min |
